Test results published in patent EP0429372A1, “2-Azolyl nicotinate derivatives as herbicides” (RHONE-POULENC AGROCHIMIE, priority 1989, dated 1991).

Key:
Assay type in all cases: in vivo
[1] = tested on: mauvaises herbes; assay: Procedure 2 d): weed control, pre-emergence; conditions: 4000 g/ha (procédé 2D), visual rating 20 to 24 days after spraying, vs control pots
Excerpt: (§1) Des quantités appropriées des composés d'essai ont été dissoutes dans de l'acétone pour obtenir des solutions équivalant à des taux d'application de 250, 1000 ou 4000 g de composé d'essai par hectare (g/ha).
Les graines ont été semées dans des pots en matière plastique de 70 mm de côté et 75 mm de profondeur, dans de la terre non stérile provenant de Boarded Barns Farm ou un type de terre similaire provenant d'une source convenable. Les quantités de graines par pot étaient les suivantes :
Les composés de la présente invention ont été appliqués à la surface du sol, contenant les semences, de la manière décrite dans le paragraphe (a). Un seul pot de chaque plante cultivée et de chaque mauvaise herbe a été attribué à chaque traitement, en association avec des témoins n'ayant pas subi de pulvérisation et des témoins ayant subi une pulvérisation avec de l'acétone seule. Après traitement, les pots ont été maintenus dans une serre et ont été arrosés par aspersion pendant 3 jours, puis par une sous- irrigation controlée. L'évaluation visuelle des dégats infligés aux plantes cultivées a été effectuée 20 à 24 jours après pulvérisation. Les résultats ont été exprimés en pourcentage de réduction de croissance ou d'endommagement des plantes cultivées ou des mauvaises herbes, comparativement aux plantes présentes dans les pots témoins.

[2] = tested on: mauvaises herbes; conditions: post-emergence, 4000 g/ha
Excerpt: as §1
Les mauvaises herbes et les plantes cultivées ont été semées directement dans du compost de mise en pot John Innes dans des pots de 75 mm de profondeur et 70 mm de côté, sauf en ce qui concerne l'espèce du genre Amaranthus qui a été repiquée au stade de jeunes plants de semis et transférée dans les pots une semaine avant plulvérisation. Puis les plantes ont été cultivées dans la serre jusqu'à ce qu'elles soient prêtres à subir une pulvérisation avec les composés d'essai. Le nombre de plantes par pot étaient les suivants :
Les composés d'essai ont été appliqués aux plantes de la manière décrite dans le paragraphe (a). Un seul pot de chaque espèce de plante cultivée et de chaque espèce de mauvaise herbe a été attribué à chaque traitement, en association avec des témoins n'ayant pas subi de pulvérisation et des témoins ayant subi une pulvérisation avec de l'acétone seule.
Après traitement, les pots ont été maintenus dans une serre et ont été arrosés une fois par aspersion au bout de 24 heures, puis par sous - irrigation contrôlée. L'évaluation visuelle des dégâts infligés aux plantes cultivées et de la destruction des mauvaises herbes a été effectué 20 à 24 jours après pulvérisation. Les résultats ont été exprimés en pourcentage de réduction de croissance ou d'endommagement des plantes cultivées ou des mauvaises herbes, comparativement aux plantes présentes dans les pots témoins.

[3] = tested on: Ipomea pupurea; assay: Example C: selectivity test in major crops, post-emergence application; conditions: 576 h
Excerpt: (§2) Dans des pots de 7 x 7 x 8 cm remplis de terre agricole légère, on sème un nombre de graines déterminé en fonction de l'espèce végétale et de la grosseur de la graine.
(§3) On recouvre ensuite les graines d'une couche de terre d'environ 3 mm d'épaisseur et on laisse germer la graine jusqu'à ce qu'elle donne naissance à une plantule au stade convenable. Le stade de traitement pour les graminées est le stade "deuxième feuille en formation". Le stade de traitement pour les dicotylédones, est le stade "cotylédons étalés, première feuille vraie en développement".
(§4) Les pots sont alors traités par pulvérisation de bouillie en quantité correspondant à une dose volumique d'application de 500 l/ha et contenant la matière active à la concentration désirée.
(§5) La bouillie a été préparée de la même manière qu'à l'exemple A.
(§6) Les pots traités sont ensuite placés dans des bacs destinés à recevoir l'eau d'arrosage, en subirrigation, et maintenus pendant 24 jours à température ambiante sous 70 % d'humidité relative.
(§7) Au bout de 24 jours, on mesure un pourcentage (D) de destruction du nombre de pieds dans le pot traité par rapport au nombre de plantes dans les pots non traités (témoin). On mesure, sur les plantes traitées restantes, le pourcentage de réduction de taille (RT) par rapport aux plantes témoin.
(§8) Le pourcentage de volume foliaire non détruit par le produit est donc donné par la formule : [formula]
(§9) Cette valeur A est transformée en notation de 0 à 5 selon l'échelle suivante :
(§10) Ainsi, un produit est jugé comme sélectif vis à vis de la culture lorsque la valeur A notée est de 0 ou 1.
(§11) Les résultats obtenus sont présentés dans l'exemple C pour des doses d'application comprises entre 0,5 et 4 kg de matière active par hectare selon les produits.

[4] = tested on: Solanum nigrum; assay: as above; conditions: 576 h
Excerpt: as §2, §3, §4, §5, §6, §7, §8, §9, §10, §11

[5] = tested on: Zea mays; assay: as above; conditions: crop (Maïs), 24 days, score 0-5, 0 or 1 = selective; further: ranges in brackets are in %
Excerpt: as §2, §3, §4, §5, §6, §7, §8, §9, §10, §11

[6] = tested on: Oryza sativa; assay: as above; conditions: crop (Riz), 24 days, score 0-5, 0 or 1 = selective; further: ranges in brackets are in %
Excerpt: as §2, §3, §4, §5, §6, §7, §8, §9, §10, §11

[7] = tested on: Sinapis alba; assay: as above; conditions: 4000 g/ha, 576 h
Excerpt: as §2, §3, §4, §5, §6, §7, §8, §9, §10, §11

[8] = tested on: Sesbania exaltata; assay: as above; conditions: 576 h
Excerpt: as §2, §3, §4, §5, §6, §7, §8, §9, §10, §11

[9] = tested on: Xanthium pennsylvanicum; assay: as above; conditions: 576 h
Excerpt: as §2, §3, §4, §5, §6, §7, §8, §9, §10, §11

[10] = tested on: Triticum aestivum; assay: as above; conditions: crop (Blé), 24 days, score 0-5, 0 or 1 = selective; further: ranges in brackets are in %
Excerpt: as §2, §3, §4, §5, §6, §7, §8, §9, §10, §11

[11] = tested on: Viola tricolor; assay: as above; conditions: 2000 g/ha, 576 h
Excerpt: as §2, §3, §4, §5, §6, §7, §8, §9, §10, §11

[12] = tested on: Convolvulus arvensis; conditions: post-emergence, 2000 g/ha, 576 h
Excerpt: as §2, §3, §4, §5, §6, §7, §8, §9, §10, §11

[13] = tested on: Chrysanthemum segetum; conditions: post-emergence, 2000 g/ha, 576 h
Excerpt: as §2, §3, §4, §5, §6, §7, §8, §9, §10, §11

[14] = tested on: Polygonum convolvulus; conditions: 2000 g/ha, 576 h
Excerpt: as §2, §3, §4, §5, §6, §7, §8, §9, §10, §11

Compound: C#CCOC(=O)c1cccnc1-c1nc2ccccc2n1S(=O)(=O)N(C)C [compound 99]
- réduction de la croissance d'une ou plusieurs des espèces de mauvaises herbes [1]: ≥ 90%
- destruction d'une ou plusieurs des espèces de mauvaises herbes [2]: ≥ 90%

Compound: CCOC(=O)c1cccnc1-c1nc(-c2ccccc2)nn1S(=O)(=O)N(C)C [compound 19]
- ACTIVITE HERBICIDE DE POST LEVEE I P O ([3]; 4000 g/ha): 4 (10 à 30)
- ACTIVITE HERBICIDE DE POST LEVEE S O L ([4]; 4000 g/ha): 5 (O à 10)
- ACTIVITE HERBICIDE DE POST LEVEE Z E A ([5]; dose 4 kg/ha): 0 (90 à 100)
- ACTIVITE HERBICIDE DE POST LEVEE O R Y ([6]; dose 4 kg/ha): 0 (90 à 100)
- ACTIVITE HERBICIDE DE POST LEVEE S I N [7]: 5 (O à 10)
- ACTIVITE HERBICIDE DE POST LEVEE S E S ([8]; 4000 g/ha): 5 (O à 10)
- ACTIVITE HERBICIDE DE POST LEVEE X A N ([9]; 4000 g/ha): 2 (50 à 70)
- ACTIVITE HERBICIDE DE POST LEVEE T R Z ([10]; dose 4 kg/ha): 0 (90 à 100)

Compound: CN(C)S(=O)(=O)n1c(-c2ncccc2C(=O)O)nc2c(Cl)cccc21 [compound 79]
- ACTIVITE HERBICIDE DE POST LEVEE I P O ([3]; 2000 g/ha): 4 (10 à 30)
- ACTIVITE HERBICIDE DE POST LEVEE S O L ([4]; 2000 g/ha): 3 (30 à 50)
- ACTIVITE HERBICIDE DE POST LEVEE Z E A ([5]; dose 2 kg/ha): 0 (90 à 100)
- ACTIVITE HERBICIDE DE POST LEVEE O R Y ([6]; dose 2 kg/ha): 0 (90 à 100)
- ACTIVITE HERBICIDE DE POST LEVEE V I O [11]: 1 (70 à 90)
- ACTIVITE HERBICIDE DE POST LEVEE S E S ([8]; 2000 g/ha): 2 (50 à 70)
- ACTIVITE HERBICIDE DE POST LEVEE X A N ([9]; 2000 g/ha): 1 (70 à 90)
- ACTIVITE HERBICIDE DE POST LEVEE T R Z ([10]; dose 2 kg/ha): 0 (90 à 100)
- ACTIVITE HERBICIDE DE POST LEVEE C O N [12]: 4 (10 à 30)
- ACTIVITE HERBICIDE DE POST LEVEE C H Y [13]: 4 (10 à 30)
- ACTIVITE HERBICIDE DE POST LEVEE P O L [14]: 3 (30 à 50)

Compound: Cc1ccc2c(nc(-c3ncccc3C(=O)O)n2S(=O)(=O)N(C)C)c1C [compound 91]
- réduction de la croissance d'une ou plusieurs des espèces de mauvaises herbes [1]: ≥ 90%
- destruction d'une ou plusieurs des espèces de mauvaises herbes [2]: ≥ 90%

Compound: COc1cccc2c1nc(-c1ncccc1C(=O)O)n2S(=O)(=O)N(C)C [compound 90]
- réduction de la croissance d'une ou plusieurs des espèces de mauvaises herbes [1]: ≥ 90%
- destruction d'une ou plusieurs des espèces de mauvaises herbes [2]: ≥ 90%
